In US20130130317A1, “METHOD FOR PRODUCING SUBSTANCE” (KYOWA HAKKO KIRIN CO., LTD, priority 2010, published 2013):
In brackets after ≈: the same amount, converted by molar mass. One block for each compound: values may come before it. Peptide text beside a SMILES is read from it.

Experiments:
[1] = H2O, 20° C.; cited from earlier work
[2] = cited from earlier work
[3] = Precipitation in media for cell culture on storage; format: physicochemical; details: 5.0 mmol/L in medium, stored at 4° C., after 3 days; for precipitation in the medium for cell culture: 20° C. or room temperature
Description: The following media for cell culture were prepared to compare differences in precipitation therebetween.
In 700 mL of water, 31.6 g of AGT Efficient Feed A (manufactured by Invitrogen, Catalog No. AG090231P7), 0.50 mL of polyamine solution (manufactured by Invitrogen, Catalog No. AG090232P8), 27.2 g of AGT Efficient Feed B (manufactured by Invitrogen, Catalog No. AG090230P7), 30.0 g of Hydrolysate (manufactured by DMV, Catalog No. P42474), 70.0 g of glucose (manufactured by Wako Pure Chemical Industries, Catalog No. 041-00595), and 5.0 g of L-(+)-glutamine (manufactured by Wako Pure Chemical Industries, Catalog No. 078-00525) or 7.4 g of L-alanyl-L-glutamine (manufactured by Kyowa Hakko Bio) were mixed.
After stirring for approximately 30 minutes, 7.0 mL of 5 mol/L HCl aqueous solution (manufactured by Wako Pure Chemical Industries, Catalog No. 081-05435) was added, followed by further stirring for approximately 20 minutes and pH was adjusted to 6.5. Thereafter, 50 mL of an alkaline solution containing 0.5 mol/L of NaOH (manufactured by Junsei Chemical, Catalog No. 39155-0301), 100 mmol/L of L-tyrosine disodium salt (manufactured by Sigma, Catalog No. T1145-100G), and 100 mmol/L of L-cystine dihydrochloride (manufactured by Wako Pure Chemical Industries, Catalog No. 034-05322) was added to the prepared aqueous solution of pH 6.5.
A volume of the aqueous solution was adjusted to 1 L with water, followed by stirring for approximately 20 minutes so as to prepare a medium for cell culture. In the medium for cell culture, L-tyrosine disodium salt and L-cystine dihydrochloride were substituted with the same concentration (5.0 mmol/L) of L-alanyl-L-tyrosine (manufactured by Kyowa Hakko Bio) and bis-L-alanyl-L-cysteine (manufactured by Kyowa Hakko Bio) to prepare media for cell culture, respectively. The prepared media for cell culture were stored under three conditions of at 4° C. (refrigerator, manufactured by Hoshizaki), 20° C. (e-Cooling Bucket, manufactured by Taitec), or room temperature.

[4] = tested on: antibody X-expressing CHO cells; assay: Fed-batch culture of CHO cells: number of living cells and survival rate; format: cell-based, Chinese hamster; details: 13 days of culture
Description: The following feed media for cell culture were prepared, and fed-batch culture was carried out using CHO cells for comparison.
(§1) The feed medium was composed of 31.6 g/L of AGT Efficient Feed A (manufactured by Invitrogen, Catalog No. AG090231P7), 0.50 ml/L of polyamine solution (manufactured by Invitrogen, Catalog No. AG090232P8), 27.2 g/L of AGT Efficient Feed B (manufactured by Invitrogen, Catalog No. AG090230P7), 5.0 g/L of L-(+)-glutamine (manufactured by Wako Pure Chemical Industries, Catalog No. 078-00525), 30.0 g/L of hydrolysates (manufactured by DMV, Catalog No. P42474), 70.0 g/L of glucose (manufactured by Wako Pure Chemical Industries, Catalog No. 041-00595), 5.0 mmol/L of L-alanyl-L-tyrosine (Kyowa Hakko Bio), and 5.0 mmol/L, 10 mmol/L or 16 mmol/L of bis-L-alanyl-L-cysteine (manufactured by Kyowa Hakko Bio), and prepared in the same manner as in Example 1.
(§2) In the culture using antibody X-expressing CHO cells, 4.0 mmol/L of glutamine (manufactured by Invitrogen, Catalog No. 25030)-containing EX-CELL325 (manufactured by SAFC, Catalog No. 14340C-1000mL) was used as a main culture medium. The feed medium was added to perform fed-batch culture.

[5] = tested on: antibody X-expressing CHO cells; assay: Antibody titer in fed-batch culture of CHO cells; format: cell-based, Chinese hamster; details: 13 days of culture
Description: as §1, §2
In order to examine antibody production, antibody titer was measured at 13 days of culture in the fed-batch culture of CHO cells having an ability to produce the antibody of Example 2. In the feed medium, the […] 0.75 g/L at 5.0 mmol/L, 0.79 g/L at 10 mmol/L, and 0.78 g/L at 16 mmol/L.

Compound: N[C@@H](CSSC[C@H](N)C(=O)O)C(=O)O [cystine]
solubility [1]: 0.1 g/L (≈ 416 µM)

Compound: Cl.N[C@@H](CS)C(=O)O [cysteine hydrochloride]
stability in an aqueous solution [2]: low stability

Compound: L-tyrosine disodium salt
precipitation in the medium for cell culture [3]: precipitations were observed | precipitation in the medium, low temperature compared with other storage conditions [3]: more precipitation was observed

Compound: C[C@H](N)C(=O)N[C@@H](Cc1ccc(O)cc1)C(=O)O [L-alanyl-L-tyrosine] (H-Ala-Tyr-OH)
precipitation in the medium for cell culture [3]: no precipitation

precipitation in the medium for cell culture [3]: no precipitation
Compound: C[C@H](N)C(=O)N(C(=O)[C@H](C)N)[C@@H](CS)C(=O)O [bis-L-alanyl-L-cysteine]
Number of living cells ([4]; 5 mmol/L in feed medium): 28.6 10^5 cells/mL | Survival rate ([4]; 5 mmol/L in feed medium): 55.0% | Number of living cells ([4]; 10 mmol/L in feed medium): 44.1 10^5 cells/mL | Survival rate ([4]; 10 mmol/L in feed medium): 78.7% | Number of living cells ([4]; 16 mmol/L in feed medium): 58.1 10^5 cells/mL | Survival rate ([4]; 16 mmol/L in feed medium): 86.6% | antibody titer ([5]; 5.0 mmol/L in feed medium): 0.75 g/L | antibody titer ([5]; 10 mmol/L in feed medium): 0.79 g/L | antibody titer ([5]; 16 mmol/L in feed medium): 0.78 g/L

precipitation in the medium for cell culture [3]: precipitations were observed | precipitation in the medium, low temperature compared with other storage conditions [3]: more precipitation was observed
Compound: Cl.Cl.N[C@@H](CSSC[C@H](N)C(=O)O)C(=O)O [L-cystine dihydrochloride]
